SMILES strings stand for the structures.

The target in this test is T1, CCR1 (Homo sapiens, UniProt P32246).
T1 construct: the THP-1 cell line, which expresses the endogenous CCR1 receptor; endogenous in cells; host or cells: THP-1 (human monocytic cell line); human PBMC or human monocytes are named as alternatives
T1 sequence (P32246 1-355): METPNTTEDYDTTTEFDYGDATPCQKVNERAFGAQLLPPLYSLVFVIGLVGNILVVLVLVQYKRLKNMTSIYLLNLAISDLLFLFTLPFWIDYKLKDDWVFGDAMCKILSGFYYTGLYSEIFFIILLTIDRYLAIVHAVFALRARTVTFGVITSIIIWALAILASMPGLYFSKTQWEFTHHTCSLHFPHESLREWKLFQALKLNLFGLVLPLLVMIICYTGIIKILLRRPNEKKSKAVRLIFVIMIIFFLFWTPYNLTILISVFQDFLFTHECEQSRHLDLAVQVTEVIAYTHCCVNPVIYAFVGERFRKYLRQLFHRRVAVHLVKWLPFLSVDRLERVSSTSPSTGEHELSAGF
As to the kind of experiment: Antagonism of 125I-MIP-1α binding to human THP-1 cells (CCR1 binding). Conditions: THP-1 cells expressing endogenous CCR1; 50 pM 125I-labeled human MIP-1α; room temperature, thirty minutes; read-out: CCR1 Binding Ki (n = 1 unless otherwise noted). As for the experimental part: Antagonism of MIP-1α Binding to Human THP-1 Cells
Compounds of the present invention have activity in the antagonism of MIP-1α binding to human THP-1 cells described here.
Millipore filter plates (#MABVN1250) are treated with 100 μl of binding buffer (0.5% bovine serum albumin, 20 mM HEPES buffer and 5 mM magnesium chloride in RPMI 1640 media) for thirty minutes at room temperature. To measure binding, 50 μl of binding buffer, with or without a known concentration of compound, is combined with 50 μl of ^125-I labeled human MIP-1α (to give a final concentration of 50 pM radioligand) and 50 μl of binding buffer containing 5×10^5 cells. Cells used for such binding assays can include the THP-1 cell line, which expresses the endogenous CCR1 receptor, or human peripheral blood mononuclear cells, isolated by Ficoll-Hypaque gradient centrifugation, or human monocytes (Weiner et al., J. Immunol. Methods, 36:89 (1980)). The mixture of compound, cells and radioligand is incubated at room temperature for thirty minutes. Plates are placed onto a vacuum manifold, vacuum applied, and the plates washed three times with binding buffer containing 0.5M NaCl. The plastic skirt is removed from the plate, the plate allowed to air dry, the wells punched out and counted. […]

As a reminder, the Ki is a dissociation constant, usually derived from enzyme kinetics or from competition with a known ligand. As to `CCC(NC(=O)C1CCCC1)C(O)C1CCN(c2ccc(Cl)cc2)CC1` (single isomer, unassigned) [Example 2, N-(1-(1-(4-Chlorophenyl)piperidin-4-yl)-1-hydroxybutan-2-yl)cyclopentanecarboxamide], the Ki was 0.354 µM.

In the case of `CCC(NC(=O)C1CCCC1)C(O)C1CCN(c2ccc(Cl)cc2)CC1` (single isomer, unassigned) [Example 1, N-(1-(1-(4-Chlorophenyl)piperidin-4-yl)-1-hydroxybutan-2-yl)cyclopentanecarboxamide], the Ki worked out at 0.93 µM.

(Values after US8492550B2, “Hydroxyalkanyl amides as modulators of chemokine receptor activity” (Bristol-Myers Squibb Company, priority 2008, dated 2013).)
